Where two headings read alike, the source gives them in different places.
Experiments:
[1] = Terminal pharmacokinetics: plasma, brain and cerebrospinal fluid concentrations; format: in vivo; conditions: one hour after 15 mg/kg SC or IP, CD-1 mice
Procedure: Given that opioid receptors are highly concentrated in the dorsal root ganglion (DRG) and brain (Martin-Schild et al., supra), terminal pharmacokinetic studies were performed to verify the concentration in the plasma, cerebrospinal fluid and brain.

Sprague-Dawley rats [2] = assay: Respiratory depression: blood oxygen saturation by pulse oximetry; format: in vivo; conditions: subcutaneous; morphine 10 mg/kg, compound 9 15, 30, 60 mg/kg; 90 minutes
Procedure: Respiratory depression is a significant side effect associated with opioid treatment of acute and chronic pain. Drug-related overdose deaths are often a function of the respiratory depression which occurs with opioid use. Efforts to generate analgesics that dissociate pain relief from side effects are critical to the advancement of public health. […] […].
Blood oxygen saturation was assessed in awake rats with the MouseOx oximeter system (Starr Life Sciences, Holliston, Mass.). Up to 5 samples were measured every 5 minutes for 15 minutes prior to dosing and 90 minutes after dosing. Each animal was habituated to the device over several days prior to the study.

Sprague-Dawley rats [3] = assay: Gastrointestinal transit of charcoal bolus and stomach contents; conditions: morphine 10 mg/kg, compound 9 15, 30, 60 mg/kg
[4] = Plasma concentration time-course after SC or IP dosing; format: in vivo; conditions: 15 mg/kg, intraperitoneal or subcutaneous, CD-1 mice, blood samples
Procedure: To be useful as a therapeutic, a MOR PAM must not only be able to activate endogenous and non-endogenous orthosteric ligands of the MOR, it must also persist in the body in concentrations sufficient to exert its allosteric effect. To test intracorporeal persistence, murine models were chosen, based on the preponderance of data available linking endogenous opioids to analgesic mechanisms. Compound 9 (Table 10) was formulated for dosing in CD-1 mice. Two mice per group were tested and each group was administered 15 mg/kg of the compound. Concentrations of the compound were measured by mass spectrometry of blood samples.

MOR [5] = target: T1, MOR (Homo sapiens, UniProt P35372); format: cell-based; conditions: cAMP; EC20 EM2 agonism of MOR
ICR rats = assay: Warm water tail-flick assay with intrathecal exogenous EM1; format: in vivo
Procedure: The warm water tail-flick assay was chosen as the acute pain model for the reasons described above. […] Przewlocka et al., (1999), supra. First, minimum and sub-efficacious dose of EM1, applied via intrathecal injection to rats, were identified. The values obtained for the minimum (3 ug/kg) and sub-efficacious dose of EM1 (1 ug/kg) are in agreement with those found in the literature. Horvath (2000), supra. In addition, the time required for maximal response to an intrathecal injection of EM1 to be observed, as well as the time required for a return to basal levels of antinociception, were determined and likewise found to be in agreement with those found in the literature.
. For these experiments, the delay in tail flick induced by EM1 alone was compared to the delay in tail flick when compound 9 was dosed in ICR-rats in combination with intrathecal administration of minimum and sub-efficacious doses of EM1. […]; These effects might be due to any of the following: Ton[Endomorphin], KElim[Endomorphin], Toff[Endomorphin], KI[Endomorphin], and possibly additional mechanisms.
[…]. The ability to rescue a sub-therapeutic dose of the endogenous ligand in a dose- and time-dependent manner with a subtype selective MOR PAM has significant implications for the clinical viability of the use of MOR PAMs in acute and chronic pain settings.

MOR [6] = target: T1, MOR; assay: cell-based; conditions: EC20 morphine agonism of MOR
mu opioid receptor (MOR) [7] = target: T2, mu opioid receptor (MOR) (Homo sapiens, UniProt P35372); assay: PathHunter β-arrestin recruitment assay, PAM mode with EC20 endomorphin-1; format: cell-based
Method in brief: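 Enzyme fragment complementation read-out: β-gal ED fragment fused to receptor, EA fused to β-arrestin, recruitment restoring β-gal activity detected by chemiluminescence. EC50 and percent maximal response derived for each compound.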

mu opioid receptor (MOR) [8] = target: T2, mu opioid receptor (MOR); assay: Hit Hunter cAMP signaling assay (adenylyl cyclase inhibition), PAM mode with EC20 endomorphin-1; format: cell-based
[9] = Plasma, brain and spinal cord concentrations after subcutaneous dosing; format: in vivo; conditions: subcutaneous 15 mg/kg, ICR rats
Procedure: Concentrations of subcutaneously injected compound 9 in spinal tissue (where the DRG are located) were also assessed.

MOR [10] = target: T1, MOR; assay: cell-based; conditions: EC20 Oxycodone agonism of MOR
MOR [11] = target: T1, MOR; assay: cell-based; conditions: EC20 morphine agonism of MOR; remark: listed apart in the source
MOR [12] = target: T1, MOR; format: cell-based; conditions: β-arrestin; EC20 EM2 agonism of MOR
MOR [13] = target: T1, MOR; format: cell-based

T2 sequence (P35372 whole entry, the tested form may be a part): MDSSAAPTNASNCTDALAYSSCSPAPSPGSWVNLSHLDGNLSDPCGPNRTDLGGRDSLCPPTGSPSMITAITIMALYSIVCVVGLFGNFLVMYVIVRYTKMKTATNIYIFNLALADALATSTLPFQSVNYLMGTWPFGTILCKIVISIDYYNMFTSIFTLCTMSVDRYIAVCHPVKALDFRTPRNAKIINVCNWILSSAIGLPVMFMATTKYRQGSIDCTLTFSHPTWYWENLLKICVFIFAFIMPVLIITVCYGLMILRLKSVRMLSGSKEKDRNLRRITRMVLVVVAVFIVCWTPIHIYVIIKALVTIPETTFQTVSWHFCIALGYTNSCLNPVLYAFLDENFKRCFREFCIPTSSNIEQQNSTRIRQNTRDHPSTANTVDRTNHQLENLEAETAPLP
T1 sequence (P35372 whole entry): as the sequence (P35372 whole entry, the tested form may be a part) above

In the case of Fc1cnc(Cl)nc1N1CCCCC1c1cccc(C(F)(F)F)c1 (single isomer, unassigned) [compound 9], the “persistence in brain and plasma” value [1] is reported as “persists in brain and plasma, at therapeutically relevant concentrations”, the “oxygen saturation / respiratory depression” value (Sprague-Dawley rats [2]) is reported as “did not induce respiratory depression” and the “stomach weight” value (Sprague-Dawley rats [3]; 20 minutes after charcoal) is reported as “unchanged”. For the same compound, the “GI transit” value (Sprague-Dawley rats [3]; subcutaneous 1 hour before charcoal) was “unchanged”, the “exposure and half-life” value [4] was “exposures and an a half-life appropriate for in vivo studies” and the “Max. Response” value (MOR [5]) was 80. For the same compound, the “effect on antinociception of a minimally efficacious dose of EM1” value (ICR rats; rat, in vivo) was “potentiates the effect of suboptimal doses of EM-1”, the “effect on antinociception of a sub-efficacious dose of EM1” value (ICR rats; rat, in vivo) was “potentiates the effect of sub-efficaceous doses of the opioid” and the “αβ product, in vivo effects fit” value (ICR rats; tail-flick, EM1 3 μg intrathecal (FIG. 12C)) was 31.5. The EC50 (MOR [6]; RC50, β-arrestin) was 10700 nM, the “Max. Response” value (MOR [6]; β-arrestin) was 456 and the EC50 (mu opioid receptor (MOR) [7]; EM1-mediated MOR agonism, read-out: RC50 for β-arrestin recruitment) was 360 nM. The “β-arr Max. Resp.” value (mu opioid receptor (MOR) [7]; maximal response for β-arrestin recruitment) was “F (F represents a maximal response of > 60%)”, the EC50 (mu opioid receptor (MOR) [7]; β-arrestin recruitment, read-out: β-arr. EC50) was less than 700 nM and the “Max. Response” value (mu opioid receptor (MOR) [7]; β-arrestin, EC20 EM-1 agonism of MOR) was 210. The EC50 (mu opioid receptor (MOR) [8]; RC50 for adenylyl cyclase inhibition, EM1-mediated MOR agonism) was 590 nM, the EC50 (mu opioid receptor (MOR) [8]; cAMP EC50, adenylyl cyclase inhibition) was less than 700 nM and the “Max. Response” value (mu opioid receptor (MOR) [8]; cAMP, EC20 EM-1 agonism of MOR) was 75. The “cAMP Max. Resp.” value (mu opioid receptor (MOR) [8]; maximal response for adenylyl cyclase inhibition) was “F (F represents a maximal response of > 60%)”, the “exposure in spinal tissue and brain” value [9] was “good exposures in spinal tissue” and the EC50 (MOR [10]; RC50, β-arrestin) was 11100 nM. For the same compound, the “Max. Response” value (MOR [10]; β-arrestin) was 296, the EC50 (MOR [11]; RC50, cAMP) was 2950 nM and the “Max. Response” value (MOR [11]; cAMP) was 38. The “Max. Response” value (MOR [12]) was 138, the “shift in the potency of EM1” value (MOR [13]; cAMP assay) was “concentration-dependent and saturable leftward shifts” and the “factor of increase of the affinity (α) of EM1” value (MOR [13]; cAMP signaling) was 2. The “factor of increase of the efficacy (β) of EM1” value (MOR [13]; cAMP signaling) was 1.8 and the “effective potency for PAM effect” value (MOR [13]; cAMP signaling, EM1) was 44 nM.

From patent US11071731B2, “Allosteric modulators of the mu opioid receptor” (Chiromics, LLC, priority 2017, dated 2021)
